The results in this text go back to patent US20050170391A1, “TAUT1 transporters expressed in blood brain barrier cells” (Xenoport, Inc., priority 2004, published 2005).

The assay has as its target T1, TAUT1 (Homo sapiens, UniProt P31641).
T1 sequence (P31641 1-620): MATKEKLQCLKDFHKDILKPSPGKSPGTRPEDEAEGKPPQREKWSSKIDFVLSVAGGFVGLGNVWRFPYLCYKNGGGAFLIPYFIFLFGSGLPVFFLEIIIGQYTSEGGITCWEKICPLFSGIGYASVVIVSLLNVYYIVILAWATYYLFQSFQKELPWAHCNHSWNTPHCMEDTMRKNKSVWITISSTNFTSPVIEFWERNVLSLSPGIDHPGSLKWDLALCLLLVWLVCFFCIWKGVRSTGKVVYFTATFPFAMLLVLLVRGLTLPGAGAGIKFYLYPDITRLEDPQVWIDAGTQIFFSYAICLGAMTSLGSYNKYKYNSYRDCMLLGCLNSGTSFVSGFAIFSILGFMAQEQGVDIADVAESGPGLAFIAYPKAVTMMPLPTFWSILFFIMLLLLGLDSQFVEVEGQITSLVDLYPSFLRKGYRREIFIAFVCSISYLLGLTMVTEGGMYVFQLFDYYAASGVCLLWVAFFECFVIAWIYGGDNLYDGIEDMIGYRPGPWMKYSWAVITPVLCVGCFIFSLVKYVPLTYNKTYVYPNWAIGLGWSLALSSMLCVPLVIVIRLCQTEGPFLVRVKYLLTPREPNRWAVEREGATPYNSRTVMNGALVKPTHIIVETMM
Nature of the assay: hTAUT1 direct uptake assay in HEK-TREx-TAUT1 cells (LC-MS-MS). Type of assay: cell-based. To be noted: direct uptake into HEK-TREx-TAUT1 cells, +TET minus no TET; 15 min, room temperature. On the set-up: expressed in transfected cells; host or cells: HEK-TREx cells (HEK-TREx-TAUT1 inducible line). The method, then:
A modified direct uptake assay was developed to determine the ability of test compounds to be transported into HEK-TREx cells induced to over-express hTAUT. Four concentrations (bracketing the affinity as measured by competition assays) per compound were routinely tested. Non-specific uptake was determined by measuring the uptake into cells not induced to express the transporter (“no tet”).
Typically, four concentrations bracketing the IC50 were tested. The highest test concentration for each compound was made in an eppendorf tube and diluted into HBSS. The samples were robustly vortexed and centrifuged for 10 minutes at 13,200 rpm to spin down any precipitate. […] Three additional 2-fold dilutions were made in the subsequent rows (B-D or […]) in HBSS.
An internal standard of 50 μM propranolol in 50:50 ethanol:water was also prepared. To prepare standard curves, several concentrations of the test compounds were diluted into HEK cell extract (prepared from tet-treated, mock-incubated and extracted cells as described below) with a final internal standard concentration of 5 μM. Standards of 10, 5, 1, 0.5, 0.1, 0.05, 0.01 and 0.005 μM were routinely run for each test compound.
HEK-TREx-hTAUT cells were plated in 96-well plates and treated with plus (columns 1-3 and 7-9) or without tetracycline (or a tetracycline analog; columns 4-6 and 10-12). The cells were removed from the incubator, and the growth media was removed from the cells. The cells were washed twice in room temperature HBSS (100 μl/well/wash) using a 96-well plate washer (Bio Tek ELX405). Alternatively, cells were washed manually with equivalent volumes using a multichannel pipettor. Immediately before the assay was begun, the final 100 μl wash solution was removed from the cells. The assay was started by using a 96-well pipettor to add 50 μl from the “compound” plate to each well of the HEK-TREx-hTAUT cell plate. The plate was incubated at room temperature for 15 minutes.
After the final wash, as much of the wash buffer as possible was removed by aspirating the wells with a probe that reached the bottom of the wells. (Residual salts from the wash buffer can adversely affect the LC-MS-MS by disrupting the LC method or by suppressing the MS signal.) 150 μl of a 50:50 ethanol:water solution was added to each well to lyse the cells and extract the test compound. The plate was covered and allowed to sit for 20 minutes at room temperature to ensure cell lysis. (The 50% ethanol solution is the generic solution for extraction. For compounds soluble in water or other solvents compatible with the LC-MS-MS, such solutions can be tried to determine they interfere with the LC-MS-MS analysis. If the organic solvent concentration is too high (>50%), it may be detrimental to the LC run).
120 μl of the cell extract was removed from each well and transferred to a fresh 96-well v-bottom polypropylene plate. This plate was covered with an adherent cover (top seal) and centrifuged for 15 minutes at 5,700 rpm (Allegra 25R centrifuge) at 4° C. to pellet any cell precipitate. 10 μl of the 50 μM propranolol solution was added to each well of a fresh 96-well plate (a plate amenable for sampling in the LC-MS-MS). 90 μl of the supernatant from the centrifuged cell extract was removed and transferred to the plate containing the 10 μl of propranolol (using the Cybi-well 96-well pipettor). The sample plate with a bubble lid suitable for use with the LC-MS-MS and placed on a plate shaker for 5 to 10 minutes to mix the sample and the propranolol. The samples were submitted for LC-MS-MS analysis. The levels of intracellular compounds were determined by converting the peak area to concentration by extrapolating from the standard curve for each compound. Uptake was expressed as μM/well.
While the uptake values in these experiments were expressed as “μM/well”, the values can be easily converted to “pmol/well” or “pmol/well/unit time”. All of the samples were extracted with 150 μl of extraction buffer.

On to `O=C(O)Cc1c[nH]cn1` [IAA, 4-imidazole acetic acid], for which the Vmax stood at 6.1 μM/well.

Take `NCCCC(=O)O` [GABA, γ-aminobutyric acid]: the Vmax was 12 μM/well.

Take `N=C(N)NCCC(=O)O` [GPA]: the Km came out at 120 µM, the Vmax is given as 6.4 μM/well and the pKm is 4.0.

For `NCC(CC(=O)O)c1ccc(Cl)cc1` (centres unmarked) [R,S-Baclofen], the Km was determined as 1700 µM, the Vmax came to 5.4 μM/well and the pKm is given as 2.9.

Broadly, the Km is the substrate concentration at which the rate is half of its maximum.
